Here are results for three molecules from patent publication US12048751B2, “Compositions and methods for assessing gut function” (MediBeacon Inc., priority 2013, dated 2024).

Series [1] in a line: Plasma concentration vs. time after single intravenous and oral dose (IV and oral clearance). It counts as in vivo, Sprague-Dawley rats. The following applies: rats having "normal" gut function; single dose given intravenously and orally (FIG. 3). The source says:
(§1) Example 1 may be categorized as fluorescent challenge molecule is not substantially absorbed by a healthy gut.

Series [2] is described as follows: Light absorption and emission maxima of the fluorescent challenge molecule. It counts as physicochemical.
From the text: as §1
Example 2 may be categorized as fluorescent challenge molecule is not substantially absorbed by a healthy gut as the molecular weight is relatively high (344 g/mol).
(§2) Example 3 may be categorized as fluorescent challenge molecule that is substantially absorbed by a healthy gut as the molecular weight is relatively low (198 g/mol).

Series [3] in a line: Clearance from the body followed by fluorescence signal, with and without ligated kidneys. It is filed as in vivo. The following applies: for clearance pathway from the body: fluorescence signal over time.
From the text: as §2

With `Nc1nc(C(=O)N[C@H](CO)C(=O)O)c(N)nc1C(=O)N[C@H](CO)C(=O)O` [Example 1, 3,6-diamino-2,5-bis{N-[(1R)-1-carboxy-2-hydroxyethyl]carbamoyl}pyrazine], in series [1], the oral bioavailability entry is reported as “very little”. In series [2], this molecule had a light absorption maximum of 445 nm and a light emission maximum of 560 nm.

With `NC(=O)c1nc(NCC(O)CO)c(C(N)=O)nc1NCC(O)CO` (stereo not shown) [Example 2, 3,6-N,N′-bis(2,3-dihydroxypropyl)-2,5-pyrazinedicarboxamide], in series [2], the light absorption maximum turned out to be 486 nm and the light emission maximum stood at 600 nm.

In series [2], `Nc1nc(C(=O)O)c(N)nc1C(=O)O` [Example 3, 3,6-diaminopyrazine-2,5-dicarboxylic Acid] returned a light absorption maximum of 396 nm and a light emission maximum of 536 nm. The “clearance pathway from the body” value in series [3] is on record as “clears from the body by the renal system”. For the same molecule, in series [3] (listed as Example Compound 3), the “clearance pathway from the body” value is given as “clears from the body via the renal system”. Besides, the “fluorescence signal when the kidneys are ligated” value in series [3] (kidneys ligated, no excretion pathway) is reported as “stays elevated”.
